Source: paper PMC7109729 (Haematologica, 2020)

Target: T1, peroxisome proliferator-activated receptor-γ (PPARγ) (Homo sapiens, UniProt P37231)
T1 sequence (P37231 223-505 limits assumed): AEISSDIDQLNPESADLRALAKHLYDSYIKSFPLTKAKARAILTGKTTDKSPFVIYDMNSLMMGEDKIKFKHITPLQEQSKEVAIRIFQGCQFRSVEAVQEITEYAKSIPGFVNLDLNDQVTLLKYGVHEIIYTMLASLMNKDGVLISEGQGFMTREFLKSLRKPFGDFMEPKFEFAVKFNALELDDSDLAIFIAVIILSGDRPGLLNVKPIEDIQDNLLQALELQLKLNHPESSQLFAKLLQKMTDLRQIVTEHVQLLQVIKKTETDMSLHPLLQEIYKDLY
Assay: SPR
Format: binding

CC(C)/N=c1\cc2n(-c3ccc(Cl)cc3)c3ccccc3nc-2cc1Nc1ccc(Cl)cc1 [CFZ, clofazimine]
Kd: 79 nM
